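Exposure lasted 48 hours, with cells grown in 96-well plates and compounds tested at five concentrations. TGI marks complete inhibition of growth.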
What was measured:
Assay in all cases: inhibition of tumour cell growth, NCI panel, 48 h
786-0 renal = system: 786-0 renal
A498 renal = system: A498 renal
A549 NSCLC = system: A549 NSCLC
ACHN renal = system: ACHN renal
CAKI-1 renal = system: CAKI-1 renal
CCRF-CEM leukemia = system: CCRF-CEM leukemia
COLO 205 colon = system: COLO 205 colon
DLD-1 colon = system: DLD-1 colon
DMS 114 small cell lung = system: DMS 114 small cell lung
HCC-2998 colon = system: HCC-2998 colon
HCT-116 colon = system: HCT-116 colon
HCT-15 colon = system: HCT-15 colon
HL-60(TB) leukemia = system: HL-60(TB) leukemia
HOP-62 NSCLC = system: HOP-62 NSCLC
HOP-92 NSCLC = system: HOP-92 NSCLC
HT29 colon = system: HT29 colon
IGROV1 ovarian = system: IGROV1 ovarian
K-562 leukemia = system: K-562 leukemia
KM12 colon = system: KM12 colon
KM20L2 colon = system: KM20L2 colon
LOX IMVI melanoma = system: LOX IMVI melanoma
LXFL 529 NSCLC = system: LXFL 529 NSCLC
M14 melanoma = system: M14 melanoma
M19-MEL melanoma = system: M19-MEL melanoma
MALME-3M melanoma = system: MALME-3M melanoma
MOLT-4 leukemia = system: MOLT-4 leukemia
NCI-H226 lung = system: NCI-H226 lung
NCI-H460 lung = system: NCI-H460 lung
NCI-H522 lung = system: NCI-H522 lung
OVCAR-3 ovarian = system: OVCAR-3 ovarian
OVCAR-4 ovarian = system: OVCAR-4 ovarian
OVCAR-5 ovarian = system: OVCAR-5 ovarian
OVCAR-8 ovarian = system: OVCAR-8 ovarian
RPMI-8226 leukemia = system: RPMI-8226 leukemia
SF-268 CNS = system: SF-268 CNS
SF-295 CNS = system: SF-295 CNS
SF-539 CNS = system: SF-539 CNS
SK-MEL-2 melanoma = system: SK-MEL-2 melanoma
SK-MEL-5 melanoma = system: SK-MEL-5 melanoma
SK-OV-3 ovarian = system: SK-OV-3 ovarian
SN12C renal = system: SN12C renal
SNB-19 CNS = system: SNB-19 CNS
SNB-75 CNS = system: SNB-75 CNS
SW-620 colon = system: SW-620 colon
UACC-257 melanoma = system: UACC-257 melanoma
UACC-62 melanoma = system: UACC-62 melanoma
UO-31 renal = system: UO-31 renal
XF 498 CNS = system: XF 498 CNS
DMS 273 small cell lung = system: DMS 273 small cell lung
EKVX NSCLC = system: EKVX NSCLC
HOP-18 NSCLC = system: HOP-18 NSCLC
NCI-H23 lung = system: NCI-H23 lung
RXF 393 renal = system: RXF 393 renal
SK-MEL-28 melanoma = system: SK-MEL-28 melanoma
SNB-78 CNS = system: SNB-78 CNS
SR leukemia = system: SR leukemia
TK-10 renal = system: TK-10 renal
U251 CNS = system: U251 CNS

Measured: TGI

O=C1C=C[C@@]23CC1C(O)C[C@H]2C=Cc1ccccc13 (some centres not stated)
not listed: DMS 273 small cell lung | EKVX NSCLC | HOP-18 NSCLC | NCI-H23 lung | RXF 393 renal | SK-MEL-28 melanoma | SNB-78 CNS | SR leukemia | TK-10 renal | U251 CNS
> 100 µM: all other assays above

O=c1n(C2CCCCC2)c(=C(Cl)Cl)c(=C(Cl)Cl)n1C1CCCCC1
not listed: CAKI-1 renal | HOP-92 NSCLC | LXFL 529 NSCLC | M14 melanoma
> 100 µM: all other assays above
